Measurements reported in PMC11640089, “JRM-28, a Novel HDAC2 Inhibitor, Upregulates Plasticity-Associated Proteins in Hippocampal Neurons and Enhances Morphological Plasticity via Activation of CREB: Implications for Alzheimer’s Disease” (Cells, 2024).
Several values for one entry are separate records, joined by “and”; a condition that tells them apart may be missing. Identical values can stand only once.

Experiments:
HDAC2 = HDAC2 (Homo sapiens, UniProt Q92769); assay: Fluorimetric HDAC inhibition assay, HDAC2; assay type: biochemical; parameters: purchased BPS Bioscience 50034 (HDAC Fluorogenic Assay Kit; enzyme supplied with kit); settings: reduced with DTT
Procedure: (§1) The inhibition of HDAC1, 2, 3, and 6 by JRM-28 was fluorometrically measured using the HDAC Fluorogenic Assay Kit (Catalog# 50034) by BPS bioscience. Purified recombinant human HDAC1 (Cat# 50051), HDAC3 (Cat# 50003), and HDAC6 (Cat# 50056) were also obtained from BPS Bioscience. The enzyme inhibition assay was performed according to the manufacturer’s protocol. […] Purified recombinant HDAC2 (supplied with the fluorogenic kit) was diluted to 6 ng/µL (5 µL/well with the supplied HDAC assay buffer). HDAC 1, 3, and 6 were also diluted to the optimized concentration (5 µL/well) with the HDAC assay buffer. The activity of JRM-28 was measured along with DTT control and DMSO as blank. After adding 5 µL of the diluted HDAC enzymes in designated wells, the 96-well plate (supplied with the kit) was incubated at 37 °C. Then, the reaction was initiated by adding 5 µL of diluted HDAC substrate to each well, followed by another incubation at 37 °C for 30 min. Next, 50 µL of the developer reagent was added to each well and incubated at room temperature for another 15 min. Finally, fluorescence was measured by a microplate absorbance spectrophotometer (PerkinElmer Enspire 2300 Multilabel Multimode Microplate Reader) with an excitation at λ = 485 nm and detection at λ = 528 nm.

CREB [1] = assay: CREB family expression (PCR array, RT-PCR, immunoblot) in SHSY5Y cells; assay type: cell-based, human
Procedure: Total RNA was isolated from SHSY5Y neurons using Gene JET RNA Purification Kit (Thermofisher Scientific; Cat #K0731) following the manufacturer’s protocol. RNA was converted to cDNA using the GoScript™ Reverse Transcriptase kit (Promega, Cat # A5001). Semi-quantitative RT-PCR was carried out as described earlier using an RT-PCR kit from Promega (Cat# M7502). Briefly, 1 µg of total RNA was reverse-transcribed using oligo(dT)12–18 as a primer and MMLV reverse transcriptase in a 20 µL reaction mixture. The resulting cDNA was diluted by nuclease-free H2O in a ratio of 1:2, and diluted cDNA was amplified using the following primers (Table 2).
Immunoblot analysis was carried out as described earlier. Briefly, SHSY5Y neuronal cell homogenates were electrophoresed by 4–12% Tris-Glycine gradient gel, proteins were transferred onto a 0.45 μm nitrocellulose membrane, and the protein band was visualized with Odyssey Sa infrared scanner after immunolabeling with primary antibodies followed by infrared fluorophore-tagged secondary antibody (Licor Biosciences, Lincoln, NE, USA).

HDAC1 = molecular target: T1, HDAC1 (Homo sapiens, UniProt Q13547); assay: Fluorimetric HDAC inhibition assay, HDAC1; assay type: biochemical; settings: reduced with DTT
T1 construct: purchased BPS Bioscience 50051
Procedure: as §1

[2] = system: mouse primary hippocampal neurons; assay: Dendrite and spine analysis in E18 mouse primary hippocampal neurons; assay type: cell-based; settings: 5 µM, 48 h
Procedure: Primary neuronal cell culture was performed based on a protocol approved by the Institutional Animal Care and Use Committee (IACUC) of the University of Wisconsin-Milwaukee, Milwaukee, WI-53211, and by the guidelines set by the National Institute of Health. Embryonic day 18 (E18) fetuses were harvested, and hippocampal tissue was dissected from brains and then processed for single cell culture in poly-D-lysine-coated plates, as discussed elsewhere. Neuronal cells were maintained with B-27^TM-plus-supplemented complete neurobasal media for 7–10 days until fully differentiated. After that, the treatment with JRM-28 was performed. […]
For counting spine density, dissociated E18 hippocampal neurons maintained 18 days in vitro were stained with Alexa-647 conjugated phalloidin (Cat #A22287) together with MAP2. Only densely stained neurons (>20 spines every 10 µm dendrite) were counted. The total length of each dendrite was measured at 400× magnification using an Accu-Scope EXC-500 microscope (NY, USA). The number of spines on the dendrites was counted under oil immersion. As some of the spines were hidden under the dendrite, only spines that protruded laterally from the shafts of the dendrites into the surrounding area of clear neuropil were counted. […]

CREB [3] = assay: CRE dual luciferase reporter assay; assay type: cell-based, human; settings: increasing doses (2, 5, and 10 µM)
Procedure: CRE luciferase assay was performed using a dual luciferase kit (Cat# 60611; BPS Bioscience). The CRE reporter is premixed with a constitutively expressing Renilla (sea pansy) luciferase vector that serves as an internal control for transfection efficiency. The reporter construct is transfected in SHSY5Y cells with Lipofectamine3000^TM transfection reagent mixed with serum-free Opti-MEM^TM Transfection media followed by supplementation with 20% FBS-containing media. After 24 h, cells were treated with JRM-28 for 5 h, and then dual luciferase activity was measured by cell lysis. The reaction was set in a 96-well plate, and the assay endpoint was recorded in a PerkinElmer Enspire multimodal plate reader.

Chain of HDAC2 (Q92769 whole entry): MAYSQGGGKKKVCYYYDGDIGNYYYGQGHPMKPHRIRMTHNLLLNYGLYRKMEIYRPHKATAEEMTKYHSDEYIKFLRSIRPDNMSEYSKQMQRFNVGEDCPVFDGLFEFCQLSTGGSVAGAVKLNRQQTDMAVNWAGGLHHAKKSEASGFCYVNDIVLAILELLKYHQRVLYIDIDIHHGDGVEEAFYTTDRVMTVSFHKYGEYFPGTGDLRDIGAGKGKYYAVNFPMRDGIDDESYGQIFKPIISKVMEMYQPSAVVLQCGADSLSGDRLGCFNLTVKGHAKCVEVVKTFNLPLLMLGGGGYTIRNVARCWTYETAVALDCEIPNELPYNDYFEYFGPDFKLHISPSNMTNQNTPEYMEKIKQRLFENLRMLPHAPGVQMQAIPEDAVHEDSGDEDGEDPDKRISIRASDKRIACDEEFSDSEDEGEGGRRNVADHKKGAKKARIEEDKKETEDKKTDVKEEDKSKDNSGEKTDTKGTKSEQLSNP
T1 sequence (Q13547 whole entry): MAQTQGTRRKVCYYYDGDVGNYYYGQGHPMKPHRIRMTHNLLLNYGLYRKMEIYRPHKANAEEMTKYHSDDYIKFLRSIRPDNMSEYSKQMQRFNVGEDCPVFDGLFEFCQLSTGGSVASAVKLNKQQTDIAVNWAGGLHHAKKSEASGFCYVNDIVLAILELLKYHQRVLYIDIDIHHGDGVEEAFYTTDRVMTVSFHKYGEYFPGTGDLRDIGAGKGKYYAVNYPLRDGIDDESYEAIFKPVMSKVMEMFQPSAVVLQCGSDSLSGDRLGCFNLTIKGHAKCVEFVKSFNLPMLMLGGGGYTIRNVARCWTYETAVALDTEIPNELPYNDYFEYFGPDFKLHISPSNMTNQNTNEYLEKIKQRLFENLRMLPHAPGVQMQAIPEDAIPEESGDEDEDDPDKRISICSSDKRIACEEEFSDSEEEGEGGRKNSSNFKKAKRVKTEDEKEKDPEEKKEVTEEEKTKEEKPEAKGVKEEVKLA

IC50 (HDAC2): ~107 nM and 107 nM | Hill slope HDAC2 (fluorimetric) (HDAC2; listed as JRM-28 (JRM-28a+28b)): −1.580 | IC50 (HDAC1): 351 nM | Hill coefficient HDAC1 (fluorimetric) (HDAC1; listed as JRM-28 (JRM-28a+28b)): −4.582
Compound: CN(C(=O)CC(O)/C=C/CCSS(=O)(=O)CC/C=C/C(O)CC(=O)N(C)c1ccccc1)c1ccccc1 (stereo not drawn) [JRM-28, S-((E)-5-hydroxy-7-(methyl(phenyl)amino)-7-oxohept-3-en-1-yl) (E)-5-hydroxy-7-(methyl(phenyl)amino)-7-oxohept-3-ene-1-sulfonothioate]
CREB and CREB-dependent gene expression (RT2 Profiler PCR Array) (CREB [1]; 5 µM): strongly upregulated the expressions of the creb gene and 37 other CREB-dependent genes | creb mRNA expression (semi-quantitative RT-PCR) (CREB [1]; 5 µM): upregulated the mRNA expression of creb | crem mRNA expression (semi-quantitative RT-PCR) (CREB [1]; 2 and 5 µM): failed to upregulate the expression of crem | CREB protein expression (immunoblot) (CREB [1]; increasing concentrations): upregulated the expression of CREB protein | spine maturation (head-to-shaft ratio >0.6) ([2]; 18 DIV): significantly induced the maturation of spines | MAP2-ir basal dendrites ([2]; 8 days in vitro): significantly upregulated the synthesis of MAP2-ir basal dendrites | CREB-driven reporter activity (CREB [3]): upregulated the CREB-driven reporter activity
